Data on two molecules can be found in BindingDB's records for patent US20250059220 (Merck Sharp & Dohme, 2025).

A word on the pIC50: it is −log10 of the IC50, conventionally taken in molar units. High values mean a small IC50, low ones a large IC50.

Structures are written as SMILES. pIC50: −log10 of the molar value.

Assay [1] deals with T1, Tyrosine-protein phosphatase non-receptor type 2 (Homo sapiens, UniProt P17706).
T1 sequence (P17706 whole entry): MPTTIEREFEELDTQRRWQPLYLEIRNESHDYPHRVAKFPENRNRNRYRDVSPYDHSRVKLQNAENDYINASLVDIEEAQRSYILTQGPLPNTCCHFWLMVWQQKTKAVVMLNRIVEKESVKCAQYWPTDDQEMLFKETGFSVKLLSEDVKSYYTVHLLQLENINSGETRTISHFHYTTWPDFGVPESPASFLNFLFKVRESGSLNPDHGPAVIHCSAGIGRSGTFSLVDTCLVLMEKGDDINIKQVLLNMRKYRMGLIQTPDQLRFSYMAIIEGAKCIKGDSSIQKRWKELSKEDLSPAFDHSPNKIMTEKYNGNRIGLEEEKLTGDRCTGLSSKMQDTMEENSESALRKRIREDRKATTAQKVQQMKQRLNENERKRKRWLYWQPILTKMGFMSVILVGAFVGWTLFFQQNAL
Kind of assay: PTPN2 Biochemical Assay. The method, then:
Test compounds were dissolved in DMSO, and 10-point serial 3-fold dilution series in DMSO were prepared in Echo Qualified 384-well Polypropylene Microplates (Labcyte, San Jose, CA) (top concentration 50 µM). Assay plates (384-well low volume black plates; Corning #3820, Corning, NY) were prepared by dispensing 50 nL of test compound, and DMSO (for high and low controls) by ECHO acoustic dispenser (Labcyte, San Jose CA). This was followed by addition of 5 μL of 0.2 nM human PTPN2 (1-387) solution (prepared in the assay buffer, 50 mM Tris pH 7.4, 150 mM NaCl, 0.01% Tween20, 0.5 mM dithiothreitol) to all wells except the low control. 5 μl of assay buffer was added into the low control, then the plate was incubated for 30 minutes at room temperature. Subsequently, 5 μl of 100 µM DiFMUP (6,8-difluoro-4-methylumbelliferyl phosphate) solution (prepared in assay buffer from 10 mM stock in DMSO) was added to the assay plate and incubated for 1 hour at room temperature. For detection, assay plates were read on SpectraMax Microplate Reader (Molecular Devices), with Excitation wavelength=360 nm and Emission wavelength=460 nm.

The target in assay [2] is T2, Tyrosine-protein phosphatase non-receptor type 1 (Homo sapiens, UniProt P18031).
T2 sequence (P18031 whole entry): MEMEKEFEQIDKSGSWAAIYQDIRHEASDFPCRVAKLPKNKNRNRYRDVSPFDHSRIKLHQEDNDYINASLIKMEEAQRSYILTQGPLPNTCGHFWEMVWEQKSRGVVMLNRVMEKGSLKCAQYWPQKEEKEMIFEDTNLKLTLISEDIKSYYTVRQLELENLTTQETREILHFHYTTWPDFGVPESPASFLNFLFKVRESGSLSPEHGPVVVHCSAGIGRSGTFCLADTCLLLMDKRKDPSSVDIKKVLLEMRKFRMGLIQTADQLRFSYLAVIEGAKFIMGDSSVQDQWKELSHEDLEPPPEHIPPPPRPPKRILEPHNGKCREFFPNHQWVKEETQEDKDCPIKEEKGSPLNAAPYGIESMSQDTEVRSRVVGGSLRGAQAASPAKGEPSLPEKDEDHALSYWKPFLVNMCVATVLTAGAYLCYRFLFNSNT
Kind of assay: PTPN1 Biochemical Assay. How it is done: Test compounds were dissolved in DMSO, and 10-point serial 3-fold dilution series in DMSO were prepared in Echo Qualified 384-well Polypropylene Microplates (Labcyte, San Jose, CA) (top concentration 50 µM). […] 5 μl of assay buffer was added into the low control. The plate was incubated for 30 minutes at room temperature. Subsequently, 5 μl of 100 µM DiFMUP (6,8-difluoro-4-methylumbelliferyl phosphate) solution (prepared in assay buffer from 10 mM stock in DMSO) was added to the assay plate and incubated for 1 hour at room temperature. For detection, assay plates were read on SpectraMax Microplate Reader (Molecular Devices), with Excitation wavelength=360 nm and Emission wavelength=460 nm.

Consider `CS(=O)(=O)CCCOc1cc(C(N)=O)cc2c(C3CC3)c(C(F)(F)P(=O)(O)O)sc12` [US20250059220, Compound 458], for which the pIC50 in assay [1] is 7.17; in assay [2] it was 7.10.

On to `Cc1ccc(COc2cc(C(N)=O)cc3c(Br)c(C(F)(F)P(=O)(O)O)sc23)cc1C` [US20250059220, Compound 358], for which the negative-log IC50 (pIC50) in assay [1] is 7.26; in assay [2], 6.97.
